In patent publication US8637509B2, “Azaindazoles” (GlaxoSmithKline LLC, priority 2010, dated 2014):

Molecular target: T1, EZH2 (Homo sapiens, UniProt Q15910)
T1 construct: GRITS37108
Assay: EZH2 methyltransferase SPA assay (3H-SAM, Hela nucleosomes)
Assay type: biochemical
Settings: read-out: IC50

T1 sequence (Q15910 whole entry): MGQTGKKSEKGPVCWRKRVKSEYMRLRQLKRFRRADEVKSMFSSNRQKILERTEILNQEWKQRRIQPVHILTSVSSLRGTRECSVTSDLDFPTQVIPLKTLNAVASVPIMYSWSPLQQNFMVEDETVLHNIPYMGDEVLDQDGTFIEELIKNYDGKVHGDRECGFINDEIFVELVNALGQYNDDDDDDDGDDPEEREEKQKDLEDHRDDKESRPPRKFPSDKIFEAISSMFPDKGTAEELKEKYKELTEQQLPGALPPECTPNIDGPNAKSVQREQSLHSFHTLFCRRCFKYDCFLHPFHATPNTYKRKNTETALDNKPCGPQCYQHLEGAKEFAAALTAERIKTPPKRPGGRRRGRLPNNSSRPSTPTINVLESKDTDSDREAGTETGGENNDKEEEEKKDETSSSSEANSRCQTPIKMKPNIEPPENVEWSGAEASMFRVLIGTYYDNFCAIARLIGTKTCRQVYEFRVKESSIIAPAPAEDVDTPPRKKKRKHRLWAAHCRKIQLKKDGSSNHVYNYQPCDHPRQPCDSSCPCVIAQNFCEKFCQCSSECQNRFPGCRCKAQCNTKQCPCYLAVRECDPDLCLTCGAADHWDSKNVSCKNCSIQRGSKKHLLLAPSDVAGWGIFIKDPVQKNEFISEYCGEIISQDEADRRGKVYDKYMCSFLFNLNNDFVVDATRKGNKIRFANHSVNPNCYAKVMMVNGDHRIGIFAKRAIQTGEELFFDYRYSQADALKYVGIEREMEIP
T1 sequence (O75530 whole entry partner): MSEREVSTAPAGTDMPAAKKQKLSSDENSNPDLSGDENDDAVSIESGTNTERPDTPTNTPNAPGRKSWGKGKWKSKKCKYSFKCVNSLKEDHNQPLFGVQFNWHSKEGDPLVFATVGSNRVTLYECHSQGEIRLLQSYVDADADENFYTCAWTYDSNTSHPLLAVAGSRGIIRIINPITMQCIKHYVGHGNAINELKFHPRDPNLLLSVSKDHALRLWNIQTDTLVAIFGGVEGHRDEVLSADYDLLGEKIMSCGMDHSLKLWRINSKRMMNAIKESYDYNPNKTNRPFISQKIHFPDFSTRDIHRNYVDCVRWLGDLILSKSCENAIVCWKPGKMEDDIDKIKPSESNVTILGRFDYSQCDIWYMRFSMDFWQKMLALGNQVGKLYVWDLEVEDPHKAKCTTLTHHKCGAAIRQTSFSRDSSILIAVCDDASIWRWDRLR
T1 sequence (Q15022 whole entry partner): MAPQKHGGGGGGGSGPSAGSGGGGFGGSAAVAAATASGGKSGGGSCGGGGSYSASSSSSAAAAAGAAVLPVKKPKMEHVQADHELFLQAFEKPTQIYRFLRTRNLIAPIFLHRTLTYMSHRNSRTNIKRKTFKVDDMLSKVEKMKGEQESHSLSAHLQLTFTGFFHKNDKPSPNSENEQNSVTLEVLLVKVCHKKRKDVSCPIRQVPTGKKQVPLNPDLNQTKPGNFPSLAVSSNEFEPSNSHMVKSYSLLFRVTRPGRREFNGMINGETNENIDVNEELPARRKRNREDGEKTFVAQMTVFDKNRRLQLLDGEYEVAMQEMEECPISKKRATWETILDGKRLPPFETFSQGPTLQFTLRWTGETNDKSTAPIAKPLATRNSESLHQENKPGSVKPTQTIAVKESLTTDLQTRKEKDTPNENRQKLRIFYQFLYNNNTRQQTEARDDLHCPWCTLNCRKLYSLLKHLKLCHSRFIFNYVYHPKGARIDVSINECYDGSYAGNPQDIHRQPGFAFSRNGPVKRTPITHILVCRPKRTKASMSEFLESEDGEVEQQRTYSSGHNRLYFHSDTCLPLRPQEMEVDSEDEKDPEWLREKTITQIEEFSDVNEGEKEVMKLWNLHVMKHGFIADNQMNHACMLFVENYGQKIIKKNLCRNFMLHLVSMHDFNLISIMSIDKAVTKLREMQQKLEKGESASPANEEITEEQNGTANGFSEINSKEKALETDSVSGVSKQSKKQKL

| IC50 | Structure (SMILES) |
| --- | --- |
| 1890 nM | Cc1cc(C)c(CNC(=O)c2cc(-c3ccccc3C)nc3c2cnn3C(C)C)c(=O)[nH]1 [Ex 70, N-[(4,6-Dimethyl-2-oxo-1,2-dihydro-3-pyridinyl)methyl]-1-(1-methylethyl)-6-(2-methylphenyl)-1H-pyrazolo[3,4-b]pyridine-4-carboxamide] |
| 25000 nM | Cc1cc(C)c(CNC(=O)c2cc(C3CC3)nc3c2cnn3CCNS(C)(=O)=O)c(=O)[nH]1 [Ex 99, 6-Cyclopropyl-N-[(4,6-dimethyl-2-oxo-1,2-dihydro-3-pyridinyl)methyl]-1-{2-[(methylsulfonyl)amino]ethyl}-1H-pyrazolo[3,4-b]pyridine-4-carboxamide] |
| 52 nM | Cc1cc(C)c(CNC(=O)c2cc(-c3ccc4[nH]c(=O)[nH]c4c3)nc3c2c(C)nn3C(C)C)c(=O)[nH]1 [Ex 77, N-[(4,6-dimethyl-2-oxo-1,2-dihydro-3-pyridinyl)methyl]-3-methyl-1-(1-methylethyl)-6-(2-oxo-2,3-dihydro-1H-benzimidazol-5-yl)-1H-pyrazolo[3,4-b]pyridine-4-carboxamide] |
| 2590 nM | Cc1cc(-c2ccccc2)c(CNC(=O)c2cc(C3CC3)nc3c2cnn3C(C)C)c(=O)[nH]1 [Ex 17, 6-Cyclopropyl-1-(1-methylethyl)-N-[(6-methyl-2-oxo-4-phenyl-1,2-dihydro-3-pyridinyl)methyl]-1H-pyrazolo[3,4-b]pyridine-4-carboxamide] |
| 71 nM | Cc1cc(C)c(CNC(=O)c2cc(-c3ccc4[nH]c(=O)[nH]c4c3)nc3c2cnn3C(C)C)c(=O)[nH]1 [Ex 80, N-[(4,6-Dimethyl-2-oxo-1,2-dihydro-3-pyridinyl)methyl]-1-(1-methylethyl)-6-(2-oxo-2,3-dihydro-1H-benzimidazol-5-yl)-1H-pyrazolo[3,4-b]pyridine-4-carboxamide] |
| 70 nM | Cc1cc(C)c(CNC(=O)c2cc(C#Cc3ccncc3)nc3c2cnn3C(C)C)c(=O)[nH]1 [Ex 33, N-[(4,6-Dimethyl-2-oxo-1,2-dihydro-3-pyridinyl)methyl]-1-(1-methylethyl)-6-(4-pyridinylethynyl)-1H-pyrazolo[3,4-b]pyridine-4-carboxamide] |
| 112 nM | Cc1cc(C)c(CNC(=O)c2cc(-c3cncc(S(C)(=O)=O)c3)nc3c2cnn3C(C)C)c(=O)[nH]1 [Ex 61, N-[(4,6-Dimethyl-2-oxo-1,2-dihydro-3-pyridinyl)methyl]-1-(1-methylethyl)-6-[5-(methylsulfonyl)-3-pyridinyl]-1H-pyrazolo[3,4-b]pyridine-4-carboxamide] |
| 231 nM | Cc1cc(C)c(CNC(=O)c2cc(C3CC3)nc3c2c(C)nn3C2CCCCC2)c(=O)[nH]1 [Ex 110, 1-Cyclohexyl-6-cyclopropyl-N-[(4,6-dimethyl-2-oxo-1,2-dihydro-3-pyridinyl)methyl]-3-methyl-1H-pyrazolo[3,4-b]pyridine-4-carboxamide] |
| 315 nM | Cc1cc(C)c(CNC(=O)c2cc(C3CC3)nc3c2c(C)nn3C2CCC2)c(=O)[nH]1 [Ex 105, 1-Cyclobutyl-6-cyclopropyl-N-[(4,6-dimethyl-2-oxo-1,2-dihydro-3-pyridinyl)methyl]-3-methyl-1H-pyrazolo[3,4-b]pyridine-4-carboxamide] |
| 3370 nM | Cc1cc(C2CC2)[nH]c(=O)c1CNC(=O)c1cc(C2CC2)nc2c1cnn2C(C)C [Ex 19, 6-Cyclopropyl-N-[(6-cyclopropyl-4-methyl-2-oxo-1,2-dihydro-3-pyridinyl)methyl]-1-(1-methylethyl)-1H-pyrazolo[3,4-b]pyridine-4-carboxamide] |
| 18 nM | Cc1cc(C)c(CNC(=O)c2cc(-c3ccc(N4CCN(C)CC4)nc3)nc3c2c(C)nn3C(C)(C)C)c(=O)[nH]1 [Ex 87, 1-(1,1-Dimethylethyl)-N-[(4,6-dimethyl-2-oxo-1,2-dihydro-3-pyridinyl)methyl]-3-methyl-6-[6-(4-methyl-1-piperazinyl)-3-pyridinyl]-1H-pyrazolo[3,4-b]pyridine-4-carboxamide] |
| 154 nM | Cc1cc(C)c(CNC(=O)c2cc(-c3ccc4[nH]nc(C)c4c3)nc3c2cnn3C(C)C)c(=O)[nH]1 [Ex 30, N-[(4,6-Dimethyl-2-oxo-1,2-dihydro-3-pyridinyl)methyl]-1-(1-methylethyl)-6-(3-methyl-1H-indazol-5-yl)-1H-pyrazolo[3,4-b]pyridine-4-carboxamide] |
| 83 nM | CC(=O)Nc1ccc(-c2cc(C(=O)NCc3c(C)cc(C)[nH]c3=O)c3c(C)nn(C(C)C)c3n2)cc1 [Ex 93, 6-[4-(Acetylamino)phenyl]-N-[(4,6-dimethyl-2-oxo-1,2-dihydro-3-pyridinyl)methyl]-3-methyl-1-(1-methylethyl)-1H-pyrazolo[3,4-b]pyridine-4-carboxamide] |
| 55 nM | Cc1cc(C(C)C)c(CNC(=O)c2cc(-c3ccncc3)nc3c2cnn3C(C)C)c(=O)[nH]1 [Ex 12, 1-(1-Methylethyl)-N-{[6-methyl-4-(1-methylethyl)-2-oxo-1,2-dihydro-3-pyridinyl]methyl}-6-(4-pyridinyl)-1H-pyrazolo[3,4-b]pyridine-4-carboxamide] |
| 199 nM | Cc1cc(C)c(CNC(=O)c2cc(-c3ccncc3)nc3c2cnn3C(C)C)c(=O)[nH]1 [Ex 114, N-[(4,6-Dimethyl-2-oxo-1,2-dihydro-3-pyridinyl)methyl]-1-(1-methylethyl)-6-(4-pyridinyl)-1H-pyrazolo[3,4-b]pyridine-4-carboxamide] |
| 55 nM | Cc1cc(C)c(CNC(=O)c2cc(-c3cncc(NS(=O)(=O)c4ccccc4)c3)nc3c2cnn3C(C)C)c(=O)[nH]1 [Ex 65, N-[(4,6-Dimethyl-2-oxo-1,2-dihydro-3-pyridinyl)methyl]-1-(1-methylethyl)-6-{5-[(phenylsulfonyl)amino]-3-pyridinyl}-1H-pyrazolo[3,4-b]pyridine-4-carboxamide] |
| 78 nM | COc1cncc(-c2cc(C(=O)NCc3c(C)cc(C)[nH]c3=O)c3cnn(C(C)C)c3n2)c1 [Ex 58, N-[(4,6-Dimethyl-2-oxo-1,2-dihydro-3-pyridinyl)methyl]-1-(1-methylethyl)-6-[5-(methyloxy)-3-pyridinyl]-1H-pyrazolo[3,4-b]pyridine-4-carboxamide] |
| 56 nM | CNS(=O)(=O)c1ccc(-c2cc(C(=O)NCc3c(C)cc(C)[nH]c3=O)c3cnn(C(C)C)c3n2)cc1 [Ex 42, N-[(4,6-Dimethyl-2-oxo-1,2-dihydro-3-pyridinyl)methyl]-6-{4-[(methylamino)sulfonyl]phenyl}-1-(1-methylethyl)-1H-pyrazolo[3,4-b]pyridine-4-carboxamide] |
| 151 nM | Cc1cc(C)c(CNC(=O)c2cc(-c3ccc4[nH]ncc4c3)nc3c2cnn3C(C)C)c(=O)[nH]1 [Ex 74, N-[(4,6-Dimethyl-2-oxo-1,2-dihydro-3-pyridinyl)methyl]-6-(1H-indazol-5-yl)-1-(1-methylethyl)-1H-pyrazolo[3,4-b]pyridine-4-carboxamide] |
| 86 nM | Cc1cc(C)c(CNC(=O)c2cc(-c3ccc(N(C)C)nc3)nc3c2cnn3C(C)C)c(=O)[nH]1 [Ex 41, 6-[6-(Dimethylamino)-3-pyridinyl]-N-[(4,6-dimethyl-2-oxo-1,2-dihydro-3-pyridinyl)methyl]-1-(1-methylethyl)-1H-pyrazolo[3,4-b]pyridine-4-carboxamide] |
| 198 nM | Cc1cc(C)c(CNC(=O)c2cc(-c3c[nH]c(=O)[nH]c3=O)nc3c2cnn3C(C)C)c(=O)[nH]1 [Ex 48, N-[(4,6-Dimethyl-2-oxo-1,2-dihydro-3-pyridinyl)methyl]-6-(2,4-dioxo-1,2,3,4-tetrahydro-5-pyrimidinyl)-1-(1-methylethyl)-1H-pyrazolo[3,4-b]pyridine-4-carboxamide] |
| 673 nM | Cc1cc(C)c(CNC(=O)c2cc(N3CCOCC3)nc3c2cnn3C(C)C)c(=O)[nH]1 [Ex 26, N-[(4,6-Dimethyl-2-oxo-1,2-dihydro-3-pyridinyl)methyl]-1-(1-methylethyl)-6-(4-morpholinyl)-1H-pyrazolo[3,4-b]pyridine-4-carboxamide] |
| 131 nM | Cc1cc(C)c(CNC(=O)c2cc(-c3ccc4cn[nH]c4c3)nc3c2cnn3C(C)C)c(=O)[nH]1 [Ex 75, N-[(4,6-Dimethyl-2-oxo-1,2-dihydro-3-pyridinyl)methyl]-6-(1H-indazol-6-yl)-1-(1-methylethyl)-1H-pyrazolo[3,4-b]pyridine-4-carboxamide] |
| 173 nM | Cc1cc(C)c(CNC(=O)c2cc(-c3ccc4nonc4c3)nc3c2c(C)nn3C(C)C)c(=O)[nH]1 [Ex 90, 6-(2,1,3-Benzoxadiazol-5-yl)-N-[(4,6-dimethyl-2-oxo-1,2-dihydro-3-pyridinyl)methyl]-3-methyl-1-(1-methylethyl)-1H-pyrazolo[3,4-b]pyridine-4-carboxamide] |
| 695 nM | Cc1cc(C)c(CNC(=O)c2cc(N)nc3c2cnn3C(C)C)c(=O)[nH]1 [Ex 6, 6-Amino-N-[(4,6-dimethyl-2-oxo-1,2-dihydro-3-pyridinyl)methyl]-1-(1-methylethyl)-1H-pyrazolo[3,4-b]pyridine-4-carboxamide] |
| 81 nM | Cc1cc(C)c(CNC(=O)c2cc(-c3ccc(S(N)(=O)=O)cc3)nc3c2cnn3C(C)C)c(=O)[nH]1 [Ex 50, 6-[4-(Aminosulfonyl)phenyl]-N-[(4,6-dimethyl-2-oxo-1,2-dihydro-3-pyridinyl)methyl]-1-(1-methylethyl)-1H-pyrazolo[3,4-b]pyridine-4-carboxamide] |
| 367 nM | Cc1cc(C)c(CNC(=O)c2cc(C3CC3)nc3c2c(C)nn3C2CCN(C)CC2)c(=O)[nH]1 [Ex 111, 6-Cyclopropyl-N-[(4,6-dimethyl-2-oxo-1,2-dihydro-3-pyridinyl)methyl]-3-methyl-1-(1-methyl-4-piperidinyl)-1H-pyrazolo[3,4-b]pyridine-4-carboxamide] |
| 25 nM | CC(=O)Nc1ccc(-c2cc(C(=O)NCc3c(C)cc(C)[nH]c3=O)c3cnn(C(C)C)c3n2)cn1 [Ex 69, 6-[6-(Acetylamino)-3-pyridinyl]-N-[(4,6-dimethyl-2-oxo-1,2-dihydro-3-pyridinyl)methyl]-1-(1-methylethyl)-1H-pyrazolo[3,4-b]pyridine-4-carboxamide] |
| 76 nM | COc1ccc(-c2cc(C(=O)NCc3c(C)cc(C)[nH]c3=O)c3cnn(C(C)C)c3n2)cn1 [Ex 68, N-[(4,6-Dimethyl-2-oxo-1,2-dihydro-3-pyridinyl)methyl]-1-(1-methylethyl)-6-[6-(methyloxy)-3-pyridinyl]-1H-pyrazolo[3,4-b]pyridine-4-carboxamide] |
